Assay results published in patent US20040171086A1, “Selective modulation of TLR-mediated biological activity” (3M Innovative Properties Company, priority 2003, published 2004).

What was measured:
TLR6 = molecular target: T1, TLR6 (Homo sapiens, UniProt Q9Y2C9); experiment: IFN-α1-luciferase reporter assay in genetically modified Namalwa cells, TLR6; assay type: cell-based; conditions: 10 μM IRM, 18 hours
T1 construct: expressed in transfected cells; host or cells: Namalwa (ATCC CRL-1432), pCI-TLR6 vector, G418 selected
T1 sequence (Q9Y2C9 32-796): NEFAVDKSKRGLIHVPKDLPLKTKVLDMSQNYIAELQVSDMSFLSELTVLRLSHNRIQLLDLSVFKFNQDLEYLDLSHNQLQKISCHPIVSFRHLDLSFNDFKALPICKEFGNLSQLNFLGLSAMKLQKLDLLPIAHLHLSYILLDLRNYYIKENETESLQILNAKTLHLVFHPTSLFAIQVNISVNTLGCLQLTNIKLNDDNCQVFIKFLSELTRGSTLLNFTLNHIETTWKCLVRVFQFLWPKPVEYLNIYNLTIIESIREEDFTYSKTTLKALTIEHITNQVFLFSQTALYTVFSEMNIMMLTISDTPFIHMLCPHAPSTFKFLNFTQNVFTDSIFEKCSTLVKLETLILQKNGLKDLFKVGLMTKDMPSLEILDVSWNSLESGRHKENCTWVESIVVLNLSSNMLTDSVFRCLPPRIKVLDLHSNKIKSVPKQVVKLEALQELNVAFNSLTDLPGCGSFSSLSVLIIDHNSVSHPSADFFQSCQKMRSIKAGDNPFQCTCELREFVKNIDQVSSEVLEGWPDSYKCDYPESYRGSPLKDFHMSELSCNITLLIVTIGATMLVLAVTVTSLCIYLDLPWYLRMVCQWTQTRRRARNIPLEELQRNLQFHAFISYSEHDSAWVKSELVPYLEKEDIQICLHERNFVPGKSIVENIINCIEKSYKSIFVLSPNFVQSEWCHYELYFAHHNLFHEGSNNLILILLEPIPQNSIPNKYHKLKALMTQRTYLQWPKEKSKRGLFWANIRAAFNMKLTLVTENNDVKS
Procedure: (§1) Results are shown in Table 6 and are expressed as fold induction of IFN-α1 —induced luciferase signal, again with respect to a vehicle control.
(§2) The assay identified TLR6-selective compounds (i.e., compounds that modulate TLR6-mediated activity, but not TLR7-mediated activity), TLR7-selective compounds (compounds that modulate TLR7-mediated activity, but not TLR6-mediated activity), and compounds that modulate cellular activity through both TLR6 and TLR7.
(§3) Unless otherwise indicated, all incubations were performed at 37° C. with 5% CO2 at 98% humidity.
(§4) Culture medium was prepared from complete RPMI 1640 medium (BioSource International, Inc., Camarillo, Calif.). Fetal bovine serum (Atlas Biologicals, Inc., Ft. Collins, Colo.) was added to a final concentration of 7.5% (vol/vol); L-glutamine (BioSource International, Inc.) was added to 5 mM; and sodium pyruvate (BioSource International, Inc.) was added to 1 mM.
Namalwa cells were grown by incubation in culture medium overnight. Cells were harvested by centrifugation in a tabletop centrifuge (1200 RPM for 5 minutes), and then resuspended in phosphate buffered sucrose to a concentration of 1.3×10^7 cells/mL.
For each transfection, a 750 μL aliquot of the cell suspension was placed in an electroporation cuvette with 4 mm gaps. 10 μg of the pIFN-α1-luc vector and 10 μg of the pCI-TLR6 vector were added to the electroporation cuvette. The cell and vector mixtures were incubated at room temperature for 5 minutes. The cells were electroporated using a BioRad Gene Pulser (BioRad Laboratories, Hercules, Calif.) set to at 500 μF capacitance and […], then incubated at room temperature for 5 minutes.
(§5) The electroporated cells were suspended in 10 mLs of culture medium and incubated overnight. Dead cells and debris were removed after 24 hours using a MACS Dead Cell Removal kit (Miltenyi Biotec, Auburn, Calif.). Cells were resuspended in 10 mL of culture medium and incubated for an additional 24 hours.
(§6) Transfected cells were selected by adding G418 (Promega Corp., Madison, Wis.) to a final concentration of 1 mg/mL and incubating the cells for seven days.
(§7) The selected transfected cells were counted and resuspended to a concentration of 1×10^6 cell per mL in culture medium. 100 μl aliquots of cells were placed in the wells of a white-walled, white-bottomed 96-well plate (Corning, Inc., Corning, N.Y.). 1.0 μL of an IRM compound from Table 1 (prepared at 1 mM in 100% DMSO) was added to some cell aliquots so that the final concentration of IRM compound was 10 μM. As a positive control, some cell aliquots were incubated with Sendai virus instead of IRM compound. As a negative control, some cell aliquots were incubated with DMSO without IRM compound. In all cases, the cells were incubated for 18 hours.
(§8) The plates were equilibrated to room temperature before one volume of reconstituted LucLight Plus (Packard Instruments, Meriden, Conn.) was added to each aliquot of cells. Each well of the plate was read on an LJL Analyst (LJL Biosystems, Inc., Sunnyvale, Calif.) set with a 5 minute dark adapt. Results are shown in Table 6 and are expressed as fold increase of the IFN-αl—induced luciferase signal compared to a DMSO control.

TLR7 = molecular target: T2, TLR7 (Homo sapiens, UniProt Q9NYK1); experiment: IFN-α1-luciferase reporter assay in genetically modified Namalwa cells, TLR7; assay type: cell-based; design: expressed in transfected cells; host or cells: Namalwa (ATCC CRL-1432); conditions: 10 μM IRM, 18 hours
T2 sequence (Q9NYK1 27-1049): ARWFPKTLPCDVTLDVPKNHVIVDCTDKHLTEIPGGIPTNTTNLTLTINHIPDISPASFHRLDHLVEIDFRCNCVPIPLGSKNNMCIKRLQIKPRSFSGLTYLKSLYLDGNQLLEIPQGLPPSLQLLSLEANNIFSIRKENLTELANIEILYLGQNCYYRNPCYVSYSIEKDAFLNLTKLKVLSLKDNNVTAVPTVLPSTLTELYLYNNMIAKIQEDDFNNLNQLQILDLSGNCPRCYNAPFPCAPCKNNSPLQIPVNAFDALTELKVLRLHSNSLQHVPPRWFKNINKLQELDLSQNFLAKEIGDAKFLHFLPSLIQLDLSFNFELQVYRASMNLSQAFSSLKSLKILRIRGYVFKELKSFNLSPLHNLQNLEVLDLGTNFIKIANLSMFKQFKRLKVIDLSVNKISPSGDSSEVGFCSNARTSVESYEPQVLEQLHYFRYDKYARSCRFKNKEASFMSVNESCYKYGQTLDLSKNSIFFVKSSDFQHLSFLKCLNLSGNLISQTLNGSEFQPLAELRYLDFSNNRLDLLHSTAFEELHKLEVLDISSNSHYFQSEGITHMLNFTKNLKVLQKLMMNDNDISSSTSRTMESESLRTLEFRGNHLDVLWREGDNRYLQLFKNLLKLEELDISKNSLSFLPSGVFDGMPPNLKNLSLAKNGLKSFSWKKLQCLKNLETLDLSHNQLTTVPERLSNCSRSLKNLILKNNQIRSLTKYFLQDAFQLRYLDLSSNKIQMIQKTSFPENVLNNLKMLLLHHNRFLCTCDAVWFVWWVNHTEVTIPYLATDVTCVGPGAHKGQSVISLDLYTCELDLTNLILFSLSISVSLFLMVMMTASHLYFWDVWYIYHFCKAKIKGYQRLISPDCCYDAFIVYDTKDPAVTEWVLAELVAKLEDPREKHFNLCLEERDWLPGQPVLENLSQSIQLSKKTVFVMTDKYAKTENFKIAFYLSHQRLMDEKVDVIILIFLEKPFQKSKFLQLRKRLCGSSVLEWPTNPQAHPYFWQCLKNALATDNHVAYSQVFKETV
Procedure: as §1, §2, §3, §4
Namalwa cells were grown by incubation in culture medium overnight. Cells were harvested by centrifugation in a tabletop centrifuge (1200 RPM for 5 minutes), and then resuspended in phosphate buffered sucrose to a concentration of 1.3×10^7 cells/mL. […]
as §5, §6, §7, §8

| TLR6: fold increase of the IFN-α1-induced luciferase signal compared to a DMSO control (TLR6) [fold increase] | TLR7: fold increase of the IFN-α1-induced luciferase signal compared to a DMSO control (TLR7) [fold increase] | SMILES |
| --- | --- | --- |
| 0.00 | 3.38 | Nc1nc2ccccc2c2c1ncn2CCCCNC(=O)c1cccc2ccccc12 [IRM24, N^1-[4-(4-amino-1H-imidazo[4,5-c]quinolin-1-yl)butyl]-1-naphthamide] |
| 0.04 | 2.89 | CN(C)c1cccc(CCCOCCn2cnc3c(N)nc4ccccc4c32)c1 [IRM25, 1-(2-{3-[3-(dimethylamino)phenyl]propoxy}ethyl)-1H-imidazo[4,5-c]quinolin-4-amine] |
| 1.50 | 2.48 | CCOCc1nc2c(N)nc(C)c(C)c2n1CCNS(C)(=O)=O [IRM26, N-{2-[4-amino-2-(ethoxymethyl)-6,7-dimethyl-1H-imidazo[4,5-c]pyridin-1-yl]ethyl}methanesulfonamide] |
| 4.38 | 1.28 | CCCCc1nc2c(N)nc3ccccc3c2n1CCCCNS(=O)(=O)c1ccc2ccccc2c1 [IRM30, N^2-[4-(4-amino-2-butyl-1H-imidazo[4,5-c]quinolin-1-yl)butyl]-2-naphthalenesulfonamide] |
| 7.47 | 1.77 | CCCCc1nc2c(N)nc3ccccc3c2n1CCCNC(=O)Nc1ccccc1 [IRM32, N-[3-(4-amino-2-butyl-1H-imidazo[4,5-c]quinolin-1-yl)propyl]-N′-phenylurea] |
| 13.12 | 1.99 | Cc1nc(N)c2nc(C)n(CCCCCS(=O)(=O)c3ccccc3)c2c1C [IRM33, 1-(5-benzenesulfonyl-pentyl)-2,6,7-trimethyl-1H-imidazo[4,5-c]pyridin-4-ylamine] |
| 10.80 | 3.37 | Cc1nc2c(N)nc3ccccc3c2n1CC(C)(C)O [IRM34, 4-amino-α,α,2-trimethyl-1H-imidazo[4,5-c]quinoline-1-ethanol] |
| 6.72 | 2.33 | Nc1nc2ccccc2c2c1ncn2CCOCCCc1cccnc1 [IRM35, 1-{2-[3-(3-pyridyl)propoxy]ethyl}-1H-imidazo[4,5-c]quinolin-4-amine] |
| 1.07 | 2.17 | Nc1nc2ccccc2c2c1ncn2CCCCCCCCNC(=O)c1ccccc1 [IRM43, N-[8-(4-amino-1H-imidazo[4,5-c]quinolin-1-yl)octyl]benzamide] |

Second part, the compound before the results:

| SMILES | TLR6: fold increase of the IFN-α1-induced luciferase signal compared to a DMSO control (TLR6) [fold increase] | TLR7: fold increase of the IFN-α1-induced luciferase signal compared to a DMSO control (TLR7) [fold increase] |
| --- | --- | --- |
| CCCCc1nc2c(N)nc3cccnc3c2n1CCNC(=O)c1ccc(Br)o1 [IRM23, N^2-[2-(4-amino-2-butyl-1H-imidazo[4,5-c][1,5]naphthyridin-1-yl)ethyl]-5-bromo-2-furamide] | 0.90 | 2.02 |
| CCCCc1nc2c(N)nc3ccccc3c2s1 [IRM27, 2-butylthiazolo[4,5-c]quinolin-4-amine] | 6.28 | 1.32 |
| Nc1nc2ccccc2c2c1ncn2CCCCNC(=O)c1cnc2ccccc2c1 [IRM28, N^3-[4-(4-amino-1H-imidazo[4,5-c]quinolin-1-yl)butyl]-3-quinolinecarboxamide] | 2.27 | 0.96 |
| Nc1nc2ccccc2c2c1ncn2COCCOc1ccc([N+](=O)[O-])cc1 [IRM29, 1-{[2-(4-nitrophenoxy)ethoxy]methyl}-1H-imidazo[4,5-c]quinolin-4-amine] | 4.57 | 1.32 |
| Nc1nc2ccccc2c2c1ncn2CCOCc1cc2ccccc2o1 [IRM31, 1-[2-(benzo[b]furan-2-ylmethoxy)ethyl]-1H-imidazo[4,5-c]quinolin-4-amine] | 3.40 | 1.63 |
| CCCCc1nc2c(N)nc3cccnc3c2n1CCNC(=O)c1ccc(Br)s1 [IRM42, N^2-[2-(4-amino-2-butyl-1H-imidazo[4,5-c][1,5]naphthyridin-1-yl)ethyl]-5-bromo-2-thiophenecarboxamide] | 0.98 | 3.54 |
